Measured values from patent US20250275993A1, “GLYCOSYLATION INHIBITORS AS THERAPEUTICS FOR STROKE” (The Regents of the University of California, priority 2022, published 2025).
“Also recorded” adds a separate entry of the source.

Assays:
[1] = tested on: bovine choroidal microvascular endothelial cells (BCEC); experiment: BCEC proliferation assay (AlamarBlue / crystal violet); assay type: cell-based; conditions: for stimulation of BCEC proliferation by other hexosamines and structurally related molecules: with or without VEGF, tested alongside ManN
Description: The effect of ManN on EC proliferation was assessed.
AlamarBlue detects mitochondria activity as an indication of cell viability which correlates with cell number at certain ranges.
Proliferation assays with BCECs and BRECs were performed. Log-phase growing BCECs or BRECs (passage <10) were trypsinized, re-suspended and seeded in 96-well plates (no coating) in low-glucose DMEM supplemented with 10% bovine calf serum, 2 mM glutamine, and antibiotics (growth medium), at a density of 1200-1500 cells per well in 200 μl volume. All reagents were added at the indicated final concentrations. After 3-6 days, cells were incubated with AlamarBlue for 4 hrs. Fluorescence was measured at 530 nm excitation wavelength and 590 nm emission wavelength. The experiments were repeated at least three times. […] 20% methanol or 0.05% DMSO served as negative controls. […] Human RMVECs and human adult DMVECs were split into Gelatin-coated 96 wells (2000 cells per well) in low glucose DMEM containing 10% FBS. 1200 cells/well was set up for proliferation assay in low glucose media containing 0.5% FBS. Data was collected at day 4 or 5. HUVEC (p7-10) were grown on gelatin-coated plate until it reached 70-80% confluency.
On the day of the assay, cells were dissociated with 0.05% trypsin, which was neutralized with 0.5% FBS-containing EBM. Cells were briefly spun and then re-suspended in 0.5% FBS-media. Cells were counted and plated in 96-well, 1000 cells/well. Triplicate wells were used for each treatment. Data were collected at day 3, and then cells were fixed in 4% paraformaldehyde for 15 min before adding crystal violet. Cell-covered areas were quantified after taking pictures by Image J software.

Bip, CHOP, ATF-6 = experiment: Western blot of UPR responsive proteins in BCECs; assay type: cell-based, bovine; conditions: for restoration of ATF-6 expression: ManN at 400 μM
[2] = tested on: ERK, AKT, mTOR, CREB, ACC and eNOS; experiment: Western blot of signal transduction pathways in BCECs; assay type: cell-based, bovine; conditions: 40 μM
Description: Cells were allowed to reach-80% confluency in 12-well plates. […] At various time points, plates were taken out of the incubator and kept on ice. […] Lysates were collected and mixed with 4× Bolt LDS Sample Buffer (Novex, Carlsbad, CA) in the presence of Halt protease inhibitors and phosphatase inhibitor cocktail (ThermoFisher scientific, #NP0007). […] HUVECs (passage 6-8) were plated in EBM-2 basal medium (Lonza) with 0.2% FBS. Following overnight culture, cells were serum-starved in EBM-2 medium for 4 hrs prior to treatment with 50 ng/ml of VEGF165 or vehicle controls for various lengths. Equal amounts of protein lysates were analyzed by SDS-PAGE and blotted with the indicated antibodies. Proteins were transferred using Tris-Glycine buffer with 20% Methanol (Proteonomics grade) (Apex BioResearch Products). Membranes were first incubated with 5% milk in TBST, pH 7.6 (TEKnova, Hollister, CA), followed by blotting with primary and secondary antibodies. ECL anti-rabbit IgG, horseradish peroxidase linked whole antibody from donkey or sheep anti-mouse were obtained from GE Healthcare (UK limited). SuperSignal West Dura Extended Duration substrate was from ThermoFisher Scientific. In some cases, the same PVDF membranes were stripped by 8-min incubation in the Restore Plus Western Blot Stripping Buffer (ThermoFisher Scientific) to show total specific protein expression, followed by second stripping for (3-actin expression.

ERK and AKT = experiment: Western blot of ERK and AKT activation in HUVEC and hDMVECs; assay type: cell-based, human; conditions: 40 μM
Description: Cells were allowed to reach-80% confluency in 12-well plates. […] At various time points, plates were taken out of the incubator and kept on ice. Cell monolayers were first washed once with ice-cold PBS before lysis with 250 μI of Pierce RIPA buffer (ThermoFisher Scientific, Rockford, IL) or use 50 mM Tris-HCl (pH 7.6), 150 mM NaCl, 10% Glycerol, 1% NP-40 containing protease/Phosphatase inhibitor cocktail (100×) (Cell signaling, #5872). Lysates were collected and mixed with 4× Bolt LDS Sample Buffer (Novex, Carlsbad, CA) in the presence of Halt protease inhibitors and phosphatase inhibitor cocktail (ThermoFisher scientific, #NP0007). The samples were subjected to SDS-PAGE (Bolt 4-12% Bis-Tris Plus, Invitrogen) using Bolt MES SDS running buffer or NuPAGE 3-8% Tris-Acetate gel using Tris-Acetate SDS running buffer (Novex). HUVECs (passage 6-8) were plated in EBM-2 basal medium (Lonza) with 0.2% FBS. Following overnight culture, cells were serum-starved in EBM-2 medium for 4 hrs prior to treatment with 50 ng/ml of VEGF165 or vehicle controls for various lengths. Equal amounts of protein lysates were analyzed by SDS-PAGE and blotted with the indicated antibodies. Proteins were transferred using Tris-Glycine buffer with 20% Methanol (Proteonomics grade) (Apex BioResearch Products). […]

JNK/c-jun = experiment: Western blot of JNK pathway activation in BCECs; assay type: cell-based, bovine; conditions: 40 μM; BCECs; FIG. 7E
Description: Cells were allowed to reach-80% confluency in 12-well plates. […] At various time points, plates were taken out of the incubator and kept on ice. Cell monolayers were first washed once with ice-cold PBS before lysis with 250 μI of Pierce RIPA buffer (ThermoFisher Scientific, Rockford, IL) or use 50 mM Tris-HCl (pH 7.6), 150 mM NaCl, 10% Glycerol, 1% NP-40 containing protease/Phosphatase inhibitor cocktail (100×) (Cell signaling, #5872). Lysates were collected and mixed with 4× Bolt LDS Sample Buffer (Novex, Carlsbad, CA) in the presence of Halt protease inhibitors and phosphatase inhibitor cocktail (ThermoFisher scientific, #NP0007). The samples were subjected to SDS-PAGE (Bolt 4-12% Bis-Tris Plus, Invitrogen) using Bolt MES SDS running buffer or NuPAGE 3-8% Tris-Acetate gel using Tris-Acetate SDS running buffer (Novex). HUVECs (passage 6-8) were plated in EBM-2 basal medium (Lonza) with 0.2% FBS. Following overnight culture, cells were serum-starved in EBM-2 medium for 4 hrs prior to treatment with 50 ng/ml of VEGF165 or vehicle controls for various lengths. Equal amounts of protein lysates were analyzed by SDS-PAGE and blotted with the indicated antibodies. Proteins were transferred using Tris-Glycine buffer with 20% Methanol (Proteonomics grade) (Apex BioResearch Products). Membranes were first incubated with 5% milk in TBST, pH 7.6 (TEKnova, Hollister, CA), followed by blotting with primary and secondary antibodies. ECL anti-rabbit IgG, horseradish peroxidase linked whole antibody from donkey or sheep anti-mouse were obtained from GE Healthcare (UK limited). SuperSignal West Dura Extended Duration substrate was from ThermoFisher Scientific. In some cases, the same PVDF membranes were stripped by 8-min incubation in the Restore Plus Western Blot Stripping Buffer (ThermoFisher Scientific) to show total specific protein expression, followed by second stripping for (3-actin expression.

[3] = tested on: BCEC confluent monolayers; experiment: BCEC scratch assay; assay type: cell-based, bovine; conditions: over 48 hours relative to control
Description: BCECs (passage 6-10) and HUVEC (passage 6-8) were used in this assay. Cells were grown until about 80% confluency in 6-well plates, washed twice with PBS and then starved in serum-free DMEM (low Glucose, Hyclone) for 5 hrs before making a “scratch” using 1 ml tip. Cell monolayers were briefly washed once with serum-free media, followed by various treatments in media containing 1% FBS. 48 hrs later, the assay was stopped by adding 2 ml 4% paraformaldehyde. 20 min later, fixed cells were stained with 1 ml Crystal Violet (Sigma). Plates were washed gently under the running tap water and air-dried before taking pictures. Images were acquired by ZEISS Discovery […] microscopy equipped with […] camera. Quantification of wound closure was done using AxioVision LE Rel.4.4 software. Six images were taken for each sample and six measurements (in pixel) were made on each image using AxioVision LE Re1.4.4 software.

retinal vasculature = experiment: Retinal neovascularization after intravitreal injection; assay type: in vivo, mouse; conditions: 500 ng ManN or Kif, 200 ng bFGF intravitreally; after seven days
Description: The effect of ManN and Kif on inducing retinal neovascularization was assessed. The findings in cultured eye-derived EC were extended to a suitable in vivo model system. The mouse retina has been used extensively over the past decades to study both physiological and pathological angiogenesis. To obtain a detailed description of the retinal vasculature, images from retinal flat mounts were processed for vascular area fraction (ratio of area covered by blood vessels to total retinal area). Using this model, the effects of ManN in retinal neovascularization were assessed. Kif was also tested in this model because it is a water-soluble inhibitor and its mechanism of glycosylation inhibition is well established. In addition, it shares with ManN the ability to activate ERK, AKT and stress pathways in BCEC (FIG. 7E).
Assessment of retinal angiogenesis following intravitreal administration was done. Briefly, 6-8 weeks old C57BL/6 male mice were randomly allocated to different groups and anesthetized with ketamine/Xylazine cocktail. The indicated amounts of ManN, Kif or bFGF (R&D systems, AF-233-NA) in 1 μl of PBS and PBS vehicle control were injected intravitreally with a 33-gauge Hamilton syringe. Seven days after injection, animals were euthanized. Eyes were then enucleated and fixed in 4% paraformaldehyde (PFA) for 30 mins. Retinas were separated and stained with anti-CD31 immunofluorescence (IF) to evidence the vasculature. Evaluations were performed by an investigator blinded to the treatment. For CD31 IF, rat anti-mouse antibody (BD Biosciences, CAT #550274) was diluted 1:100 and incubated overnight at 4° C. After 4-hour incubation with the Alexa Fluor-488-conjugated anti-rat antibody (Life Technologies, A11006), whole mounts were imaged via the 488 nm channel using AIR Confocal STORM super-resolution system (Nikon). Quantification of vascular density in choroids and retina was carried out by Image J. Each experiment was repeated three times with similar results, and each treatment group consists of 5 individual samples.

For `O=C(O)CCCc1ccccc1` [4-PBA, 4-phenylbutyric acid], which “reversal of ManN activity on BCEC proliferation by chaperone” value ([1]; pre-treating with 1 mM 4-PBA for 4 hours, absence or presence of VEGF) is on record?
The value was “effectively reverse the bell-shaped activity of ManN on BCEC proliferation”.

What about the “effect of chaperone on ManN/VEGF additivity and ManN toxicity” value ([1]; pre-treatment with 1 mM 4-PBA for 8 hours, FIG. 5D) of the same compound?
The value was “abrogated additive effects of 40 μM ManN and 5 ng/ml VEGF and protected cells from toxic effect induced by 2 mM ManN”.

What about the “prevention of CHOP induction by ManN” value (Bip, CHOP, ATF-6; 2 mM 4-PBA or 500 µM TUDCA, ManN at 400 μM and 5 mM) of the same compound?
The value was “could prevent the induction of CHOP expression”.

What about the “restoration of ATF-6 expression” value (Bip, CHOP, ATF-6) of the same compound?
Its value is “restore the expression of ATF-6”.

With `O[C@H]1[C@H](O)[C@@H](O)CN2CC[C@H](O)[C@H]12` [Cas, Castanospermine] as the compound, how does the “BCEC proliferation by glycosylation inhibitors” value ([1]; 0.01 to 100 μM, 3 days, absence or presence of 5 ng/ml VEGF) read?
Its value is “stimulated in a dose-dependent fashion”.

What about the “activation of ERK and AKT in BCECs by glycosylation inhibitors” value ([2]; FIG. 7E) of the same compound?
The value was “less obvious; also recorded: did not activate ERK”.

And the “activation of ERK and AKT in human ECs by glycosylation inhibitors” value (ERK and AKT)?
Its value is “less obvious”.

What about the “activation of the JNK pathway by glycosylation inhibitors” value (JNK/c-jun) of the same compound?
The value was “able to activate the JNK pathway”.

And the “gap closing in BCEC scratch assay by glycosylation inhibitors” value [3]?
Its value is “significant activity”.

What about the “Bip expression by glycosylation inhibitors” value (Bip, CHOP, ATF-6; media without growth factors for 24 hours) of the same compound?
Its value is “dose-dependent induction of Bip expression”.

For `Cl.NCC(=O)[C@@H](O)[C@H](O)[C@H](O)CO` [D-isoglucosamine, 1-Amino-1-deoxy-D-Fructose hydrochloride], which “stimulation of BCEC proliferation by other hexosamines and structurally related molecules” value (from here on “stimulation of BCEC proliferation”) [1] is on record?
Its value is “None of these molecules stimulated BCEC proliferation”.

With `CC(=O)N[C@@H]1C(O)O[C@H](CO)[C@@H](O)[C@@H]1O` (stereo partly drawn) [ManNAc, N-Acetyl-D-Mannosamine, reference compound] as the compound, how does the “activation of ERK, AKT, mTOR, CREB, ACC and eNOS by other sugars” value ([2]; BCECs, FIG. 2C) read?
Its value is “induced a similar activation”.

Which “stimulation of BCEC proliferation” value [1] does the source give for `CC(=O)N[C@H]1[C@H]([C@H](O)[C@H](O)CO)OC(O)(C(=O)O)C[C@@H]1O` (stereo partly shown) [N-Acetylneuraminic acid] here?
Its value is “None of these molecules stimulated BCEC proliferation”.

How did the “restoration of ATF-6 expression” value (Bip, CHOP, ATF-6) turn out when `C[C@H](CCC(=O)NCCS(=O)(=O)O)[C@H]1CC[C@H]2[C@@H]3[C@@H](O)C[C@@H]4C[C@H](O)CC[C@]4(C)[C@H]3CC[C@]12C` [TUDCA, tauroursodeoxycholic acid] was run?
Its value is “much weaker”.

How did the “stimulation of BCEC proliferation” value [1] turn out when `N[C@H]1C(O)O[C@H](CO)[C@H](O)[C@@H]1O` (stereo partly drawn) [galactosamine, D-(+)-Galactosamine] was run?
Its value is “none of these hexosamines had significant stimulatory effects”.

Which “stimulation of BCEC proliferation” value [1] does the source give for `N[C@H]1C(O)O[C@H](CO)[C@@H](O)[C@@H]1O` (stereo partly drawn) [glucosamine, D-(+)-Glucosamine] here?
Its value is “none of these hexosamines had significant stimulatory effects”.

Which “stimulation of BCEC proliferation” value [1] does the source give for `CNC[C@H](O)[C@@H](O)[C@H](O)[C@H](O)CO` [meglumine, Meglumine] here?
The value was “None of these molecules stimulated BCEC proliferation”.

`C[C@@H](O[C@H]1[C@H](O)[C@@H](CO)OC(O)[C@@H]1N)C(=O)O` (stereo partly shown) [muramic acid, Muramic acid] was tested. Which “stimulation of BCEC proliferation” value [1] did it give?
The value was “None of these molecules stimulated BCEC proliferation”.

“bFGF: bFGF purchased from R&D systems, positive control” was tested. Which “increase in density of retinal vessels vs PBS group” value (retinal vasculature) did it give?
The value was “about 35%”.
